In patent US6441021B1, “Sulfonated amino acid derivatives and metalloproteinase inhibitors containing the same” (Shionogi & Co., Ltd., priority 1996, dated 2002):
Read-outs that look alike come from different tables or passages of the source.

Legend:
[1] = target: T1, MMP-9 (92 kDa, gelatinase B; type IV collagenase) (Homo sapiens, UniProt P14780); assay: Assay of type IV collagenase inhibitors: activated MMP-9 with type IV collagenase activity kit substrate, fluorescent intensity; type: biochemical
T1 construct: endogenous in cells; enzyme purified from the conditioned medium

[2] = inhibition of type IV collagenase (MMP-9), concentration at which percent inhibition reaches 50%

T1 sequence (P14780 107-707 limits assumed): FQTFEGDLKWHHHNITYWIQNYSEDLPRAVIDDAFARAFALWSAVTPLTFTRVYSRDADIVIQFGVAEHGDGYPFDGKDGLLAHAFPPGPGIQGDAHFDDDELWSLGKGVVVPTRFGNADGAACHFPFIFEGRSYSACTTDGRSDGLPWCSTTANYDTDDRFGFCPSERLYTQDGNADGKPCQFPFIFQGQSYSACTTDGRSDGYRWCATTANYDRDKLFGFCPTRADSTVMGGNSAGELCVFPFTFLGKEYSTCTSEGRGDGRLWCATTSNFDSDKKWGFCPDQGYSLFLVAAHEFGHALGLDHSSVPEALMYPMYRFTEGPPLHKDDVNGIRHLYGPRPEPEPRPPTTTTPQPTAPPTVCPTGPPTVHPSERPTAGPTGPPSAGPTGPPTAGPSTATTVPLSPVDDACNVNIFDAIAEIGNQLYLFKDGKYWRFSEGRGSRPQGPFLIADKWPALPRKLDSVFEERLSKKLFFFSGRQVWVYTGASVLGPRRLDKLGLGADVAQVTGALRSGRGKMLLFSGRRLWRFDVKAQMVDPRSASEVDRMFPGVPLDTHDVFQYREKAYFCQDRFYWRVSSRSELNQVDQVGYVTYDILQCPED

SMILES	IC50 [1]	melting point	IC50 [1, 2]
O=C(O)[C@@H](Cc1ccccc1)NS(=O)(=O)c1ccc(-c2nnn(-c3ccc(C(F)(F)F)cc3)n2)cc1 [Example 229]	215 nM	197 to 198 °C	–
CC(C)[C@@H](NS(=O)(=O)c1ccc(-c2nnn(-c3ccccc3)n2)cc1)C(=O)O [Example 215]	–	221 to 222 °C	110 nM
O=C(Nc1ccc(S(=O)(=O)N[C@H](Cc2c[nH]c3ccccc23)C(=O)O)cc1)c1ccccc1 [Example 177]	–	215 to 217 °C	684 nM
CSc1ccc(C(=O)Nc2ccc(S(=O)(=O)N[C@@H](C(=O)O)C(C)C)cc2)cc1 [Example 197]	–	231 to 234 °C	16.1 nM
O=C(Nc1ccc(S(=O)(=O)N[C@H](Cc2ccccc2)C(=O)O)cc1)c1ccc(Br)cc1 [Example 189]	37.5 nM	242 to 243 °C	–
O=C(Nc1ccc(S(=O)(=O)N[C@H](Cc2ccccc2)C(=O)O)cc1)c1ccc([N+](=O)[O-])cc1 [Example 187]	177 nM	235 to 239 °C	–
O=C(O)[C@@H](Cc1c[nH]c2ccccc12)NS(=O)(=O)c1ccc(-c2nnn(-c3ccc(F)cc3)n2)cc1 [Example 227]	19.8 nM	203 to 205 °C	–
O=C(O)[C@@H](Cc1ccccc1)NS(=O)(=O)c1ccc(-c2nnn(-c3ccc(O)cc3)n2)cc1 [Example 239]	243 nM	226 to 228 °C	–
CC(C)[C@H](C(=O)NO)N(C)S(=O)(=O)c1ccc(Oc2ccccc2)cc1 [Example 253]	0.039 nM	110 to 111 °C	–
COc1ccc(C(=O)Nc2ccc(S(=O)(=O)N[C@H](Cc3ccccc3)C(=O)O)cc2)cc1 [Example 186]	98.2 nM	237 to 239 °C	–
CC(C)[C@H](C(=O)NO)N(Cc1ccccc1)S(=O)(=O)c1ccc(Oc2ccccc2)cc1 [Example 254]	0.63 nM	148 to 150 °C	–
